Assay results published in patent US20220072138A1, “NRTI THERAPIES” (THE UNIVERSITY OF LIVERPOOL, priority 2018, published 2022).
One block for each compound: values may come before it.

Tests used:
HIV [1] = settings: cited from earlier work
[2] = primate; cited from earlier work
HIV [3] = settings: in vivo; cited from earlier work
[4] = In vitro metabolism of FTC POP fragments in human liver S9; type: in vitro ADME; settings: human liver S9, 1 mM, 37° C.
Protocol: (§1) After incubation at 37° C., aliquots were taken at each time point and quenched in 2 volumes of Ice-cold methanol. The quenched aliquots were then centrifuged at 14000 rpm for 5 min. The supernatant was diluted 10-fold Into phosphate buffer (0.1 M, pH 7.4) and injected onto the HPLC for analysis (5% to 100% B over 8 minutes at a flow rate of 1 mL mi; solvent A: 50 mM Et3NHOAc, pH 8; solvent B: acetonitrile) and read spectrophotometrically monitoring a decrease in substrate peak area at 305 nm (23) or 280 nm (25) over time. Quantification of 23 at each time point to determine rate was achieved by converting peak areas to nmols using a standard curve (23). Quantification of 25 at each time point to determine rate was achieved by calculating nmols based on the percent of total peak area at 250 nm (25+26, 200 nmol total). Hydrolysis of 25 yields two molar equivalents of 1, determined by quantifying 1 using a standard curve following full conversion of 25 to 1.
Human Liver S9 Fraction-Pool of 50 (Sekuisi Xenotech, Product #HO610.59; 20 mg/mL stock)

[5] = In vitro metabolism of FTC POP fragments in human skeletal muscle S9; type: in vitro ADME; settings: human skeletal muscle S9, 1 mM, 37° C.
Protocol: as §1
Human S9-Skeletal Muscle (Bioreclamation IVT). Solution used for in vitro metabolism is a 50/50 mix of Male Human S9 (Bioreclamation IVT, Cat #S03517) and Female Human S9 (Bioreclamation IVT, Cat #S03518). Protein concentrations (mg/mL) were determined by averaging the concentrations provided by Bioreclamation.

in vitro = in vitro ADME; settings: both sexes, human, plasma, pH 7.4
Protocol: as §1
Human Plasma (Bioreclamation IVT). Solution used for in vitro metabolism is a 50/50 mix of Human Plasma (Male) (Bioreclamation IVT, Cat #[…]2-M) and Human Plasma (Female) (Bioreclamation IVT, Cat #[…]2-F)

[6] = Solubility of carbamate 5 in phosphate buffer; type: physicochemical; settings: 100 mM phosphate buffer pH 7.4 with 5% DMSO v/v
Protocol: Carbamate 5 was synthesized according to the process described above. Purity. The compound was dissolved in DMSO (100 μM) and injected on HPLC to determine purity of 95.1% at 269-270 nm. Standard Curve. Serial dilution of carbamate 5 in DMSO (100 μM to 0.78 μM) was done and each sample injected on HPLC. The UV absorbance at different concentrations was used to obtain a linear standard curve. The standard curve was used in determining solubility in buffers, kinetics of degradation at pH 7.4 and stability under polymerization conditions. Solubility. Carbamate 5 in DMSO was mixed with 100 mM phosphate buffer pH7.4 with varying amounts of DMSO (0.1% v/v, 0.5% v/v, 1% v/v and 5% v/v). The mixtures were centrifuged at 14000 rpm for 5 min and the supernatant injected on HPLC.

[7] = Stability of carbamate 5 under model polymerization conditions; type: physicochemical; settings: CH2Cl2, 0.5 eq DMAP, 2 eq pyridine, RT
Protocol: Stability of compound 5 under polymerization conditions. Carbamate 5 is shown to release TAF in a time bond manner. To determine the stability of carbamate moiety under polymerization conditions and evaluate the utility of TAF phenyl carbamates, carbamate 5 was tested for its stability under model polymerization conditions. A solution of carbamate 5 in methylene chloride (CH2Cl2) was stirred with 0.5 molar equivalent of 4-Dimethylaminopyridine and 2 molar equivalents of pyridine at room temperature (RT, 22-25° C.) for 24 h. The portion of the reaction mixture was removed and dissolved in DMSO followed by analysis of the reaction mixture using HPLC to determine amount of TAF formed and carbamate 5 left after 24 h. Standard curve was used to determine that 20.5% TAF was formed after 24 hours, leaving 79.5% carbamate 5 intact (FIG. 23).

Compound: C#C[C@]1(CO)O[C@@H](n2cnc3c(N)nc(F)nc32)C[C@@H]1O [EFdA, 4′-ethynyl-2-fluoro-2′-deoxyadenosine]
- predicted in vitro potency relative to TFV (HIV [1]; higher than TFV): ~8400 fold
- IC50 (HIV [1]; read-out: in vitro IC50): ~200 pM
- plasma t1/2 [2]: ~7 h
- viral suppression maintained after the last dose (HIV [3]): ≥ 7 days

- Liver S9 initial rate (rate of disappearance of starting material) [4]: 0.6 ± 0.06 nmol/h/mg
- Muscle S9 initial rate (rate of disappearance of starting material) [5]: *Non-linear trend
- half-life at 1 mM (in vitro): 13 ± 1.5 h
Compound: O=C(Nc1nc(=O)n([C@@H]2CS[C@H](CO)O2)cc1F)OCCOCCOCCOC(=O)Nc1nc(=O)n([C@@H]2CS[C@H](CO)O2)cc1F [Polymer 23, (ethane-1,2-diylbis(oxy))bis(ethane-2,1-diyl) bis((5-fluoro-1-((2R,5S)-2-(hydroxymethyl)-1,3-oxathiolan-5-yl)-2-oxo-1,2-dihydropyrimidin-4-yl)carbamate)]

- Liver S9 initial rate (rate of disappearance of starting material) [4]: 1014 ± 86 nmol/h/mg
- Muscle S9 initial rate (rate of disappearance of starting material) [5]: 3.7 ± 0.4 nmol/h/mg
- half-life at 1 mM (in vitro): 0.45 ± 0.02 h
Compound: Nc1nc(=O)n([C@@H]2CS[C@H](COC(=O)OCCOCCOCCOC(=O)OC[C@@H]3O[C@H](n4cc(F)c(N)nc4=O)CS3)O2)cc1F [Polymer 25, bis(((2R,5S)-5-(4-amino-5-fluoro-2-oxopyrimidin-1(2H)-yl)-1,3-oxathiolan-2-yl)methyl) ((ethane-1,2-diylbis(oxy))bis(ethane-2,1-diyl)) bis(carbonate)]

Compound: N-(2,4,6-trimethylphenyl)-tenofovir alafenamide carbamate [carbamate 5]
- solubility (achievable concentration) [6]: 111.2 µM
- TAF formed after 24 hours [7]: 20.5%
- carbamate 5 left intact after 24 hours [7]: 79.5%
